Reference: PubChem BioAssay (NCI)
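Tested at 5 concentrations; 48 h exposure; 96-well plates; endpoints linearly interpolated, else capped at highest concentration. TGI: total growth inhibition.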

Experiments:
Test in all cases: growth of human tumour cells (NCI), 48 h
[1] = system: 786-0 renal
[2] = system: A498 renal
[3] = system: A549 NSCLC
[4] = system: ACHN renal
[5] = system: BT-549 breast
[6] = system: CAKI-1 renal
[7] = system: CCRF-CEM leukemia
[8] = system: COLO 205 colon
[9] = system: DU-145 prostate
[10] = system: EKVX NSCLC
[11] = system: HCC-2998 colon
[12] = system: HCT-116 colon
[13] = system: HCT-15 colon
[14] = system: HL-60(TB) leukemia
[15] = system: HOP-62 NSCLC
[16] = system: HOP-92 NSCLC
[17] = system: HS 578T breast
[18] = system: HT29 colon
[19] = system: IGROV1 ovarian
[20] = system: K-562 leukemia
[21] = system: KM12 colon
[22] = system: LOX IMVI melanoma
[23] = system: M14 melanoma
[24] = system: MALME-3M melanoma
[25] = system: MCF7 breast
[26] = system: MDA-MB-231 breast
[27] = system: MDA-MB-435
[28] = system: MDA-N
[29] = system: MOLT-4 leukemia
[30] = system: NCI-H226 lung
[31] = system: NCI-H23 lung
[32] = system: NCI-H460 lung
[33] = system: NCI-H522 lung
[34] = system: NCI/ADR-RES ovarian
[35] = system: OVCAR-3 ovarian
[36] = system: OVCAR-4 ovarian
[37] = system: OVCAR-5 ovarian
[38] = system: OVCAR-8 ovarian
[39] = system: PC-3 prostate
[40] = system: RPMI-8226 leukemia
[41] = system: RXF 393 renal
[42] = system: SF-268 CNS
[43] = system: SF-295 CNS
[44] = system: SK-MEL-2 melanoma
[45] = system: SK-MEL-28 melanoma
[46] = system: SK-MEL-5 melanoma
[47] = system: SK-OV-3 ovarian
[48] = system: SN12C renal
[49] = system: SNB-19 CNS
[50] = system: SNB-75 CNS
[51] = system: SR leukemia
[52] = system: SW-620 colon
[53] = system: T-47D breast
[54] = system: TK-10 renal
[55] = system: U251 CNS
[56] = system: UACC-257 melanoma
[57] = system: UACC-62 melanoma
[58] = system: UO-31 renal
[59] = system: SF-539 CNS

COc1cc(OC)c2c(=O)cc(-c3ccccc3F)[nH]c2c1 was tested, and the TGI [1] was greater than 100 µM, the TGI [2] was greater than 100 µM and the TGI [3] was greater than 100 µM. The TGI [4] was greater than 100 µM, the TGI [5] was greater than 100 µM and the TGI [6] was greater than 100 µM. The TGI [7] was greater than 100 µM, the TGI [8] was greater than 100 µM and the TGI [9] was greater than 100 µM. For the same molecule, the TGI [10] was greater than 100 µM, the TGI [11] was 52.3 µM and the TGI [12] was greater than 100 µM. For the same molecule, the TGI [13] was greater than 100 µM, the TGI [14] was greater than 100 µM and the TGI [15] was greater than 100 µM. It also gave a TGI [16] greater than 100 µM, a TGI [17] greater than 100 µM and a TGI [18] greater than 100 µM. For the same molecule, the TGI [19] was greater than 100 µM, the TGI [20] was greater than 100 µM and the TGI [21] was greater than 100 µM. It also gave a TGI [22] greater than 100 µM, a TGI [23] greater than 100 µM and a TGI [24] greater than 100 µM. For the same molecule, the TGI [25] was greater than 100 µM, the TGI [26] was greater than 100 µM and the TGI [27] was greater than 100 µM. It also gave a TGI [28] greater than 100 µM, a TGI [29] greater than 100 µM and a TGI [30] greater than 100 µM. The TGI [31] was greater than 100 µM, the TGI [32] was greater than 100 µM and the TGI [33] was greater than 100 µM. For the same molecule, the TGI [34] was greater than 100 µM, the TGI [35] was greater than 100 µM and the TGI [36] was 53.3 µM. For the same molecule, the TGI [37] was greater than 100 µM, the TGI [38] was greater than 100 µM and the TGI [39] was greater than 100 µM. It also gave a TGI [40] greater than 100 µM, a TGI [41] greater than 100 µM and a TGI [42] greater than 100 µM. The TGI [43] was greater than 100 µM, the TGI [44] was greater than 100 µM and the TGI [45] was greater than 100 µM. The TGI [46] was greater than 100 µM, the TGI [47] was greater than 100 µM and the TGI [48] was greater than 100 µM. The TGI [49] was 73.6 µM, the TGI [50] was greater than 100 µM and the TGI [51] was greater than 100 µM. For the same molecule, the TGI [52] was greater than 100 µM, the TGI [53] was greater than 100 µM and the TGI [54] was 84.4 µM. It also gave a TGI [55] greater than 100 µM, a TGI [56] greater than 100 µM and a TGI [57] greater than 100 µM. The TGI [58] was 84.5 µM.

Molecule N#CCCCC[N+]12CN3CN(CN(C3)C1)C2 has a TGI [1] greater than 100 µM, a TGI [2] greater than 100 µM and a TGI [3] greater than 100 µM. The TGI [4] was greater than 100 µM, the TGI [5] was greater than 100 µM and the TGI [6] was greater than 100 µM. The TGI [7] was greater than 100 µM, the TGI [8] was greater than 100 µM and the TGI [9] was greater than 100 µM. For the same molecule, the TGI [10] was greater than 100 µM, the TGI [11] was greater than 100 µM and the TGI [12] was greater than 100 µM. It also gave a TGI [13] greater than 100 µM, a TGI [14] greater than 100 µM and a TGI [15] greater than 100 µM. It also gave a TGI [16] greater than 100 µM, a TGI [17] greater than 100 µM and a TGI [18] greater than 100 µM. It also gave a TGI [19] greater than 100 µM, a TGI [20] greater than 100 µM and a TGI [21] greater than 100 µM. For the same molecule, the TGI [22] was greater than 100 µM, the TGI [23] was greater than 100 µM and the TGI [24] was greater than 100 µM. For the same molecule, the TGI [25] was greater than 100 µM, the TGI [26] was greater than 100 µM and the TGI [27] was greater than 100 µM. For the same molecule, the TGI [28] was greater than 100 µM, the TGI [29] was greater than 100 µM and the TGI [30] was greater than 100 µM. The TGI [31] was greater than 100 µM, the TGI [32] was greater than 100 µM and the TGI [33] was greater than 100 µM. For the same molecule, the TGI [34] was greater than 100 µM, the TGI [35] was greater than 100 µM and the TGI [36] was greater than 100 µM. The TGI [37] was greater than 100 µM, the TGI [38] was greater than 100 µM and the TGI [39] was greater than 100 µM. The TGI [40] was greater than 100 µM, the TGI [41] was greater than 100 µM and the TGI [42] was greater than 100 µM. It also gave a TGI [43] greater than 100 µM, a TGI [59] of 54 µM and a TGI [44] greater than 100 µM. For the same molecule, the TGI [45] was greater than 100 µM, the TGI [46] was greater than 100 µM and the TGI [47] was greater than 100 µM. It also gave a TGI [48] greater than 100 µM, a TGI [49] greater than 100 µM and a TGI [50] greater than 100 µM. For the same molecule, the TGI [51] was greater than 100 µM, the TGI [52] was greater than 100 µM and the TGI [53] was greater than 100 µM. The TGI [54] was greater than 100 µM, the TGI [55] was greater than 100 µM and the TGI [56] was greater than 100 µM. The TGI [57] was greater than 100 µM and the TGI [58] was greater than 100 µM.
